Data on 18 molecules can be found in patent US20100305113A1, “Substituted Imidazopyridazines as Lipid Kinase Inhibitors” (priority 2007, published 2010).

Bounds are passed on as bounds.

Holding throughout (assay type): biochemical
Details in all cases: Enzymatic Data

One assay concerns the target T1, PI3K gamma (Homo sapiens, UniProt P48736).
T1 construct: His tag (C); made in house; host or cells: construct from Roger Williams lab (MRC LMB); baculovirus (pVL1393); Tn5 (Trichoplusia ni) or TiniPro insect cells
Nature of the assay: PI3K gamma enzymatic assay (Kinase-Glo luminescence). The method, then: (§1) In a more preferred assay, the kinase reaction is performed in a final volume of 10 μL per well of a low volume non binding CORNING, 384 well black plate (Cat. No. #3676). The final concentrations of ATP and phosphatidyl inositol (PI) in the assay are 1 μM and 10 μg/mL respectively. The reaction is started by the addition of ATP.
(§2) The components of the assay are added per well as follows:
(§3) 50 nL test compounds in 90% DMSO per well, in columns 1-20, 8 concentrations (⅓ and 1/3.33 serial dilution step) in single. • Low control: 50 nL of 90% DMSO in half the wells of columns 23-24 (0.45% in final). • High control: 50 nL of reference compound (e.g. compound of Example 7 in WO 2006/122806, incorporated by reference herein that regard) in the other half of columns 23-24 (2.5 μM in final). • Standard: 50 nL of reference compound as just mentioned diluted as the test compounds in columns 21-22 • 20 mL ‘buffer’ are prepared per assay: • 200 μL of 1M TRIS HCl pH7.5 (10 mM in final) • 60 μL of 1M MgCl2 (3 mM in final) • 500 μL of 2M NaCl (50 mM in final) • 100 μL of 10% CHAPS (0.05% in final) • 200 μL of 100 mM DTT (1 mM in final) • 18.94 mL of nanopure water • 10 mL ‘PI’ are prepared per assay: • 200 μL of 1 mg/ml L-alpha-Phosphatidylinositol (Liver Bovine, Avanti Polar Lipids Cat. No. 840042C MW=909.12) prepared in 3% OctylGlucoside ([…]) • 9.8 mL of ‘buffer’ • 10 mL ‘ATP’ are prepared per assay: • 6.7 μL of 3 mM stock of ATP giving a final concentration of 1 μM per well • 10 mL of ‘buffer’ • 2.5 mL of each PI3K construct are prepared per assay in ‘PI’ with the following final concentration: • 10 nM PI3K alfa BV-1075 • 25 nM beta BV-949 • 10 nM delta BV-1060 • 150 nM gamma BV-950 • 5 μL of ‘PI/PI3K’ are added per well. • 5 μl ‘ATP’ are added per well to start the reaction. • The plates are then incubated at room temperature for 60 minutes (alfa, beta, delta) or 120 minutes (gamma). • The reaction is terminated by the addition of 10 μL Kinase-Glo (Promega Cat. No. #6714). • The assay plates are read after 10 minutes in Synergy 2 reader (BioTek, Vermont USA) with an integration time of 100 milliseconds and sensitivity set to 191. • Output: The High control is around 60′000 counts and the Low control is 30′000 or lower • This luminescence assay gives a useful Z′ ratio between 0.4 and 0.7 The Z′ value is a universal measurement of the robustness of an assay. A Z′ between 0.5 and 1.0 is considered an excellent assay.
(§4) IC50 is determined by a four parameter curve fitting routine that comes aloneg with “excel fit”. A 4 Parameter logistic equation is used to calculate IC50 values (IDBS XLfit) of the percentage inhibition of each compound at 8 concentrations (usually 10, 3.0, 1.0, 0.3, 0.1, 0.030, 0.010 and 0.003 μM). Alternatively, IC50 values are calculated using idbsXLfit model 204, which is a 4 parameter logistic model.

Another assay concerns the target T2, PI3K beta (Homo sapiens, UniProt P42338).
T2 construct: for the full-length p110-b subunit are generated and fused by overlapping PCR; p85(iSH2) fusion partner (same polypeptide; see partner chain) (N); Gly linker (N); His tag (C); made in house; host or cells: baculovirus; Tn5 (Trichoplusia ni) or TiniPro insect cells
The assay is described as follows: PI3K beta enzymatic assay (Kinase-Glo luminescence). The method, then: as §1, §2, §3
PI3Kβ BV-949 p85(iSH2)-Gly linker-p110b (Full-Length)-C-Term His Tag
as §4
A general note: In Kinase-Glo more light means more ATP remaining.

For the next assay, the target named is T3, PI3K alfa (Homo sapiens, UniProt P42336).
T3 construct: p85(iSH2) fusion partner (same polypeptide; see partner chain) (N); 12x Gly linker (N); His tag (C); made in house; host or cells: baculovirus; Tn5 (Trichoplusia ni) or TiniPro insect cells
T3 sequence (P42336 with tags, fused parts or gaps limits assumed): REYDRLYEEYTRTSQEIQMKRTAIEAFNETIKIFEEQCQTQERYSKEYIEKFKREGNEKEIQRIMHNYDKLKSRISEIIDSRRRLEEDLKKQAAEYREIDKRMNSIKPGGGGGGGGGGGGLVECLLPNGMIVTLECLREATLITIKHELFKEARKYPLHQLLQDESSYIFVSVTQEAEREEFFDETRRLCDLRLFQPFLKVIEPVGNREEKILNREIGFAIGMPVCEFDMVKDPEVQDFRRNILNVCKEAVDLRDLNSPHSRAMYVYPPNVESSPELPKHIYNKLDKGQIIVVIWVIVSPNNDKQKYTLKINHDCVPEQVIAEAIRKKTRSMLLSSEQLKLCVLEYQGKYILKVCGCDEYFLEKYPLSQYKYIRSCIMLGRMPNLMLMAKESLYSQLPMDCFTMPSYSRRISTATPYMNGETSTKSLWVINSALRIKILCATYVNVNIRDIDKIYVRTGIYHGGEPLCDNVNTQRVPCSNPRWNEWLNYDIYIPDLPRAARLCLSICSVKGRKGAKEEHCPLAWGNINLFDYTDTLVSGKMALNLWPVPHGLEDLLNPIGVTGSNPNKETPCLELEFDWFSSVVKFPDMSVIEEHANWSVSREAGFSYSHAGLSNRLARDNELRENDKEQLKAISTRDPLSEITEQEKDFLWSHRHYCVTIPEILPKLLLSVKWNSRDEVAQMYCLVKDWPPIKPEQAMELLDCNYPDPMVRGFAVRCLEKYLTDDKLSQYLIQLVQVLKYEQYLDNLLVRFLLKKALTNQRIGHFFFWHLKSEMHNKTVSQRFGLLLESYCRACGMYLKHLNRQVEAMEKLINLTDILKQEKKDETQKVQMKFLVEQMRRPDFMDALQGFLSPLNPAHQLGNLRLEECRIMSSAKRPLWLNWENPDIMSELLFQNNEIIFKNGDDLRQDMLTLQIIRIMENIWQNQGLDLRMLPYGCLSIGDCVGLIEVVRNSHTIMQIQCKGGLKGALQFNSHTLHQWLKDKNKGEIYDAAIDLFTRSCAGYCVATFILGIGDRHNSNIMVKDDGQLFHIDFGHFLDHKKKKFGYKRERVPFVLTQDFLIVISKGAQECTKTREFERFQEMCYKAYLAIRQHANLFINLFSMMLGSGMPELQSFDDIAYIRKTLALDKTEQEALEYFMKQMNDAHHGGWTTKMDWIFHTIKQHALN
Nature of the assay: PI3K alfa enzymatic assay (Kinase-Glo luminescence). The method, then: as §1, §2, §3, §4

A further assay addresses T4, PI3K delta (Homo sapiens, UniProt O00329).
T4 construct: for the full-length p110-d subunit are generated and fused by overlapping PCR; p85(iSH2) fusion partner (same polypeptide; see partner chain) (N); Gly linker (N); His tag (C); made in house; host or cells: baculovirus; Tn5 (Trichoplusia ni) or TiniPro insect cells
Nature of the assay: PI3K delta enzymatic assay (Kinase-Glo luminescence). The method, then:
as §1, §2, §3
PI3Kδ BV-1060 p85(iSH2)-Gly Linker-p110d (Full-Length)-C-term His Tact
as §4

T4 sequence (O00329 with tags, fused parts or gaps limits assumed): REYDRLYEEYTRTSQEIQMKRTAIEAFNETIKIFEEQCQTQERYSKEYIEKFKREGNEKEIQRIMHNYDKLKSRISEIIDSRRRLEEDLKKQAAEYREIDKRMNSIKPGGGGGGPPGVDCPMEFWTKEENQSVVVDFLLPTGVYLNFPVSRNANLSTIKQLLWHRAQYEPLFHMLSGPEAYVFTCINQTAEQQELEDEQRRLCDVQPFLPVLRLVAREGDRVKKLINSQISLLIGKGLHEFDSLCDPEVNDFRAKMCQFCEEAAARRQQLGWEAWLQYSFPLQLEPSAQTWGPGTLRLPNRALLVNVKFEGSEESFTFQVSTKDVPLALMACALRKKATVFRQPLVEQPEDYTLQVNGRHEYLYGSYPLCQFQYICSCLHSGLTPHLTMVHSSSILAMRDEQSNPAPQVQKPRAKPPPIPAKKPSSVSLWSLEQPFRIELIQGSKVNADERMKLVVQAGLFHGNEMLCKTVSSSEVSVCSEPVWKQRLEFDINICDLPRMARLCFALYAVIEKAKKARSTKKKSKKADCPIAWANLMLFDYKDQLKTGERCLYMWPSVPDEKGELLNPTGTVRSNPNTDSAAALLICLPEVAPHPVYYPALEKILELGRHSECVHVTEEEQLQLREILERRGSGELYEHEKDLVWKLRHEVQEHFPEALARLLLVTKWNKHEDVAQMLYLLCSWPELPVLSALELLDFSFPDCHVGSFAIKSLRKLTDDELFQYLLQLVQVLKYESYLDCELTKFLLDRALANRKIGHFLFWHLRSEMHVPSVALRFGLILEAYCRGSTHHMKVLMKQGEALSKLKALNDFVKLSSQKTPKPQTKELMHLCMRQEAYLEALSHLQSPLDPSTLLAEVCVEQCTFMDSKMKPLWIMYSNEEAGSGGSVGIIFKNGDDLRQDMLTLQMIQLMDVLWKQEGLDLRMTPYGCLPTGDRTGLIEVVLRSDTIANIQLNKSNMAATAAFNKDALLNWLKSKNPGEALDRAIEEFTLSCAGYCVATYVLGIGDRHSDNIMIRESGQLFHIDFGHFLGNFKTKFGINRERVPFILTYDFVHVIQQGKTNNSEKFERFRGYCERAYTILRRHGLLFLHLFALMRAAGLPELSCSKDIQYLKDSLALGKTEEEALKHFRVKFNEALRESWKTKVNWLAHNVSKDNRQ
T1 sequence (P48736 144-1102 limits assumed): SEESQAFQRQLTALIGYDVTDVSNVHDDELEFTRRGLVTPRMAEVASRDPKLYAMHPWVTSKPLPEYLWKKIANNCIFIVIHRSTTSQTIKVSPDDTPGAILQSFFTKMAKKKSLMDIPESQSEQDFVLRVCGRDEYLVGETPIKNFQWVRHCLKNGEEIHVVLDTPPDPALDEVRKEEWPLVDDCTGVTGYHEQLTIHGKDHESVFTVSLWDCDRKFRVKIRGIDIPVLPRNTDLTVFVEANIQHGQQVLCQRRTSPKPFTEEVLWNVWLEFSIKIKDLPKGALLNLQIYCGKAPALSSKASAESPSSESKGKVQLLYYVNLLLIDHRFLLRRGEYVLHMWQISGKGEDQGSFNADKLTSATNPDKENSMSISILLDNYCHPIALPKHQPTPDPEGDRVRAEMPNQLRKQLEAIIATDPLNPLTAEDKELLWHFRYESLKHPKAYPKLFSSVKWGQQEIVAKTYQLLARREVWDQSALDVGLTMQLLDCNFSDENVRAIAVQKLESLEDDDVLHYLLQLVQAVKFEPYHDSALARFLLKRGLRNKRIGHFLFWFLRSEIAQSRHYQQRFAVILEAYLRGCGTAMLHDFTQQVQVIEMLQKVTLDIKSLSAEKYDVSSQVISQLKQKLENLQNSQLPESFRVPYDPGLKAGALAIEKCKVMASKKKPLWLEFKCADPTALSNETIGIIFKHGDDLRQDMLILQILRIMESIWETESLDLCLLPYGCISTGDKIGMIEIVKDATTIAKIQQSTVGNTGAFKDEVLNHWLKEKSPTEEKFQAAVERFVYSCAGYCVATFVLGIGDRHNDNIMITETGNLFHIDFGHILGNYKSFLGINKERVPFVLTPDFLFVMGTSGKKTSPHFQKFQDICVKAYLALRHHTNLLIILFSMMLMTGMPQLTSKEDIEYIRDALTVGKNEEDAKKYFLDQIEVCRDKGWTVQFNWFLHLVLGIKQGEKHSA
T2 sequence (P42338 with tags, fused parts or gaps limits assumed): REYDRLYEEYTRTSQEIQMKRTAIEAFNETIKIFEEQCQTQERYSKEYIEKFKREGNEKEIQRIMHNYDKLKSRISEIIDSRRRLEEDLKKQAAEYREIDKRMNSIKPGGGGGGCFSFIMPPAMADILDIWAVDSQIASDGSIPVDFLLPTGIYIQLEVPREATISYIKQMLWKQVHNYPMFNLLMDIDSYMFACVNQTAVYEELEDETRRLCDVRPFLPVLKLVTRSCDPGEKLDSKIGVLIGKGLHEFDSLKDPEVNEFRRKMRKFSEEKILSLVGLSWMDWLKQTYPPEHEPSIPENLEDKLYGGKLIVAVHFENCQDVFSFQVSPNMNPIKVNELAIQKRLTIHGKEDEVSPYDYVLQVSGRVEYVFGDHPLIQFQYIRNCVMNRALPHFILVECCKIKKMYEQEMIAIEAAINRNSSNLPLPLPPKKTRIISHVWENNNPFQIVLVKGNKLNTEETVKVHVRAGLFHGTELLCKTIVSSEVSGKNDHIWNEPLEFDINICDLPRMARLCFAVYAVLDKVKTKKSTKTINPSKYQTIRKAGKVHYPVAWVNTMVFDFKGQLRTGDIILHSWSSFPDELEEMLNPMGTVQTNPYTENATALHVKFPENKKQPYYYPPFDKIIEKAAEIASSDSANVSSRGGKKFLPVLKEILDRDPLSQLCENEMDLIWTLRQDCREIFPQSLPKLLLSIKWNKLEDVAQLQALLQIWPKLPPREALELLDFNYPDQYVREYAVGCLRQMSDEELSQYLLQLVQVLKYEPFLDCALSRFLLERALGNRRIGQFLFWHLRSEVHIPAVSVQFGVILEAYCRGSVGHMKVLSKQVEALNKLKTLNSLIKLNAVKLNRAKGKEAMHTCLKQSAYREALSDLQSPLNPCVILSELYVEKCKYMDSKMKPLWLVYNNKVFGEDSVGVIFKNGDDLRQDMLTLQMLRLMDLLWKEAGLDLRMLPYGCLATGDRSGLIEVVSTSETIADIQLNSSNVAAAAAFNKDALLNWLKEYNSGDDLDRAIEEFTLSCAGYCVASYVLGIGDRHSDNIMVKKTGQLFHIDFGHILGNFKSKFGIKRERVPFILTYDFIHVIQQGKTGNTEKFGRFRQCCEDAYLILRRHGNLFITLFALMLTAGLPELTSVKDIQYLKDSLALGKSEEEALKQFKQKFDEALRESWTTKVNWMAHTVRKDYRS

As for `COc1ccc(-c2ccc3nc(C)c(-c4cnc(N)c(C(F)(F)F)c4)n3n2)cc1OC` [Example 15, 5-[6-(3,4-Dimethoxy-phenyl)-2-methyl-imidazo[1,2-b]pyridazin-3-yl]-3-trifluoromethyl-pyridin-2-ylamine], the IC50 on PI3K gamma is 0.157 µM; at PI3K beta it was 0.15 µM; at PI3K alfa it was 0.0059 µM; on PI3K delta, 0.069 µM.

As to `COc1cc(-c2ccc3nc(C)c(-c4cnc(N)c(C(F)(F)F)c4)n3n2)ccc1OCCCNC(=O)C(F)(F)F` [Example 85, N-(3-{4-[3-(6-Amino-5-trifluoromethyl-pyridin-3-yl)-2-methyl-imidazo[1,2-b]pyridazin-6-yl]-2-methoxy-phenoxy}-propyl)-2,2,2-trifluoro-acetamide], the IC50 on PI3K gamma was 2.59 µM; at PI3K beta, over 9.1 µM; at PI3K alfa, 0.244 µM; on PI3K delta, 3.49 µM.

`COc1ccc(-c2ccc3nc(C)c(-c4cnc(N)c(C(F)(F)F)c4)n3n2)cc1OCCCNC(=O)c1ccncc1` [Example 97, N-(3-{5-[3-(6-Amino-5-trifluoromethyl-pyridin-3-yl)-2-methyl-imidazo[1,2-b]pyridazin-6-yl]-2-methoxy-phenoxy}-propyl)-isonicotinamide]: the IC50 on PI3K gamma is 1.33 µM; on PI3K beta it was over 9.1 µM; at PI3K alfa, 0.118 µM; at PI3K delta, 0.966 µM.

Turning to `COc1ccc(-c2ccc3nc(C)c(-c4ccc(N5CCNCC5)nc4)n3n2)cc1OC` [Example 11, 6-(3,4-Dimethoxy-phenyl)-2-methyl-3-(6-piperazin-1-yl-pyridin-3-yl)-imidazo[1,2-b]pyridazine], the 50% inhibitory concentration (IC50) on PI3K gamma was determined as 0.536 µM; on PI3K beta it was 0.613 µM; at PI3K alfa it was 0.11 µM; on PI3K delta, 2.39 µM.

In the case of `COc1cc(-c2ccc3nc(C)c(-c4cnc(N)c(C(F)(F)F)c4)n3n2)ccc1OCCNC(=O)c1ccncc1` [Example 29], the concentration for half-maximal inhibition (IC50) at PI3K gamma is 2.74 µM; on PI3K beta, over 9.1 µM; at PI3K alfa it was 0.093 µM; on PI3K delta, 1.59 µM.

As to `COc1cccc(NC(=O)NCCCOc2cc(-c3ccc4nc(C)c(-c5cnc(N)c(C(F)(F)F)c5)n4n3)ccc2OC)c1` [Example 89, 1-(3-{5-[3-(6-Amino-5-trifluoromethyl-pyridin-3-yl)-2-methyl-imidazo[1,2-b]pyridazin-6-yl]-2-methoxy-phenoxy}-propyl)-3-(3-methoxy-phenyl)-urea], the IC50 is 6.86 µM at PI3K gamma, over 9.1 µM at PI3K beta, 1.64 µM at PI3K alfa and over 9.1 µM at PI3K delta.

In the case of `COc1cc(-c2ccc3nc(C)c(-c4cnc(N)c(C(F)(F)F)c4)n3n2)ccc1OCCNC(=O)Nc1cccc(C#N)c1` [Example 47], the IC50 at PI3K gamma was 4.5 µM; on PI3K beta it was over 9.1 µM; on PI3K alfa, 1.81 µM; on PI3K delta, over 9.1 µM.

With `Cc1nc2ccc(-c3ccc4c(c3)OCO4)nn2c1-c1cnc2[nH]ccc2c1` [Example 109, 6-Benzo[1,3]dioxol-5-yl-2-methyl-3-(1H-pyrrolo[2,3-b]pyridin-5-yl)-imidazo[1,2-b]pyridazine], the IC50 on PI3K gamma was over 9.1 µM; at PI3K beta, over 9.1 µM; at PI3K alfa it was 5.91 µM; at PI3K delta it was 3.94 µM.

As to `CCOc1ccc(-c2ccc3nc(C)c(-c4ccc(N5CCOCC5)nc4)n3n2)cc1OC` [Example 14, 6-(4-Ethoxy-3-methoxy-phenyl)-2-methyl-3-(6-morpholin-4-yl-pyridin-3-yl)-imidazo[1,2-b]pyridazine], the IC50 on PI3K gamma amounted to 0.688 µM; on PI3K beta, 5.15 µM; at PI3K alfa, 0.138 µM; on PI3K delta, 2.05 µM.

For `COc1ccc(-c2c(C)nc3ccc(-c4ccc(OC)c(OC)c4)nn23)cn1` [Example 3], the half-inhibitory concentration (IC50) was 2.31 µM on PI3K beta, 0.0964 µM on PI3K alfa and 0.514 µM at PI3K delta.

As to `COc1ccc(-c2ccc3nc(C)c(-c4cc[nH]n4)n3n2)cc1OC` [Example 20, 6-(3,4-Dimethoxy-phenyl)-2-methyl-3-(1H-pyrazol-3-yl)-imidazo[1,2-b]pyridazine], the IC50 on PI3K gamma worked out at 0.358 µM; at PI3K beta, 3.24 µM; at PI3K alfa, 0.22 µM; at PI3K delta it was 1.39 µM.

With `Cc1nc2ccc(-c3ccc(S(C)(=O)=O)cc3)nn2c1-c1cncc(C#N)c1` [Example 19, 5-[6-(4-Methanesulfonyl-phenyl)-2-methyl-imidazo[1,2-b]pyridazin-3-yl]-nicotinonitrile], the IC50 at PI3K gamma was found to be 5.18 µM; on PI3K beta it was 12.3 µM; on PI3K alfa, 1.29 µM; on PI3K delta, 5.5 µM.

For the molecule `COc1cc(-c2ccc3nc(C)c(-c4cnc(N)c(C(F)(F)F)c4)n3n2)ccc1OCCNC(=O)C(C)C` [Example 81], the concentration for half-maximal inhibition (IC50) was 0.503 µM at PI3K gamma, over 9.1 µM on PI3K beta, 0.03 µM on PI3K alfa and 0.372 µM at PI3K delta.

Regarding `COc1ccc(-c2ccc3nc(C)c(-c4ccc(F)nc4)n3n2)cc1OC` [Example 1, 6-(3,4-Dimethoxy-phenyl)-3-(6-fluoro-pyridin-3-yl)-2-methyl-imidazo[1,2-b]pyridazine], the concentration for half-maximal inhibition (IC50) at PI3K gamma came out at 0.241 µM; on PI3K beta it was 1.68 µM; on PI3K alfa, 0.206 µM; on PI3K delta, 1.35 µM.

In the case of `COc1cccc(C(=O)NCCOc2ccc(-c3ccc4nc(C)c(-c5cnc(N)c(C(F)(F)F)c5)n4n3)cc2OC)c1` [Example 39], the IC50 at PI3K gamma was over 9.1 µM; at PI3K beta it was over 9.1 µM; at PI3K alfa it was 0.368 µM; on PI3K delta it was over 9.1 µM.

For the molecule `COc1cc(-c2ccc3nc(C)c(-c4ccc(S(C)(=O)=O)cc4)n3n2)ccc1OC1CCNCC1` [Example 101, 3-(4-Methanesulfonyl-phenyl)-6-[3-methoxy-4-(piperidin-4-yloxy)-phenyl]-2-methyl-imidazo[1,2-b]pyridazine], the half-inhibitory concentration (IC50) was over 9.1 µM at PI3K gamma, over 9.1 µM on PI3K beta, 1.04 µM at PI3K alfa and 1.18 µM at PI3K delta.

For `COc1cc(-c2ccc3nc(C)c(-c4cnc(N)c(C(F)(F)F)c4)n3n2)ccc1OCCNC(=O)c1cc(OC)c(OC)c(OC)c1` [Example 41], the IC50 on PI3K gamma was 0.933 µM; at PI3K beta, over 9.1 µM; at PI3K alfa it was 0.294 µM; on PI3K delta, over 9.1 µM.

As to `Cc1nc2ccc(-c3ccc(OCC4(NC(=O)C(C)C)COC4)cc3)nn2c1-c1cnc(N)c(C(F)(F)F)c1` [Example 114, N-(3-{4-[3-(6-Amino-5-trifluoromethyl-pyridin-3-yl)-2-methyl-innidazo[1,2-b]pyridazin-6-yl]-phenoxymethyl}-oxetan-3-yl)-isobutyramide], the IC50 was 1.52 µM at PI3K gamma, 8.73 µM at PI3K beta, 0.049 µM on PI3K alfa and 0.435 µM on PI3K delta.

As usually defined, the IC50 is the concentration needed to halve the response being measured.
